The source made the active and inactive calls. No cut-off for these calls is given here.
Assays:
[1] = molecular target: T1, Bifunctional epoxide hydrolase 2 (Homo sapiens, UniProt P34913); assay: Inhibition of recombinant human full length sEH assessed as reduction in 6-methoxy-2-naphthaldehyde formation using PHOME as substrate preincubated for 30 to 45 mins followed by substrate addition and measured after 30 to 45 mins by fluorescence assay
T1 sequence (P34913 whole entry): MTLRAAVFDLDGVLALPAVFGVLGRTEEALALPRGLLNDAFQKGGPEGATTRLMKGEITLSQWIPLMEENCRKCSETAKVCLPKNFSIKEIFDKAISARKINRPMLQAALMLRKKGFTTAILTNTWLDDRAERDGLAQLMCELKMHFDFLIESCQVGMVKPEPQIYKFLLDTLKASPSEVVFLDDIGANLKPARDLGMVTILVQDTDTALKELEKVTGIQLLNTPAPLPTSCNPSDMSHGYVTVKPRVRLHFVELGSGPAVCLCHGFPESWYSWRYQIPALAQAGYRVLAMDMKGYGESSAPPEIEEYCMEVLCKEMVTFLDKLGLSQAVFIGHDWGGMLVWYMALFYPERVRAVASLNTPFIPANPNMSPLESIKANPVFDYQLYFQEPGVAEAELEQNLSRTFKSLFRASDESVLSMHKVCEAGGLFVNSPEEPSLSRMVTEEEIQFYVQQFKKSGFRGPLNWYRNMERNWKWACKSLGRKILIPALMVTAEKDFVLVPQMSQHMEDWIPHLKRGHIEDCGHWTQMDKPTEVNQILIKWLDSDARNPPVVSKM

[2] = molecular target: T2, Peroxisome proliferator-activated receptor gamma (Homo sapiens, UniProt P37231); assay: Partial agonist activity at GAL4-tagged human PPARgamma LBD expressed in HEK293T cells incubated for 12 to 14 hrs by dual-Glo luciferase assay; format: cell-based
T2 sequence (P37231 whole entry): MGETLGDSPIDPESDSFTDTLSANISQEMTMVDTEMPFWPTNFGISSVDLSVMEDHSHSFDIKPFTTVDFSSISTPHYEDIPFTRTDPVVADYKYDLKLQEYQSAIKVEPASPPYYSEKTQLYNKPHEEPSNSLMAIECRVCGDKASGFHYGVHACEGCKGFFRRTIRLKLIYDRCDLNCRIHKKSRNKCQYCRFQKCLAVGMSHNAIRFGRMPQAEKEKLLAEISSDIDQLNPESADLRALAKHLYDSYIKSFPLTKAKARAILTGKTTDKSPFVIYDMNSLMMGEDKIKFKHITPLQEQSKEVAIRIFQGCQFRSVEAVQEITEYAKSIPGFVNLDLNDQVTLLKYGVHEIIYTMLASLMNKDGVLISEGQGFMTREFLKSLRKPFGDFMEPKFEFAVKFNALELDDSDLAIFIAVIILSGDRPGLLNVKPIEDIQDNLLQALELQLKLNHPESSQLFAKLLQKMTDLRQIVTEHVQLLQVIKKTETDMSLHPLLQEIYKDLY

[3] = molecular target: T3, Peroxisome proliferator-activated receptor gamma (Homo sapiens) (UniProt P37231); assay: Partial agonist activity at GAL4-tagged human PPARgamma LBD expressed in HEK293T cells at 10 uM incubated for 12 to 14 hrs by dual-Glo luciferase assay; format: cell-based; details: time 12-14 hrs
T3 sequence (whole entry): T2 sequence (P37231 whole entry)

[4] = Stability of compound in Sprague-Dawley rat liver microsomes assessed as half life at 10 uM preincubated for 5 mins in presence of NADPH regenerating system followed by microsomal addition and measured upto 60 mins by HPLC analysis; format: ADME, Microsome; details: time 65 min
[5] = Stability of compound in human liver microsomes assessed as half life at 10 uM preincubated for 5 mins in presence of NADPH regenerating system followed by microsomal addition and measured upto 60 mins by HPLC analysis; format: ADME, Microsome; details: time 65 min
[6] = Stability of compound in BALB/c mouse liver microsomes assessed as half life at 10 uM preincubated for 5 mins in presence of NADPH regenerating system followed by microsomal addition and measured upto 60 mins by HPLC analysis; format: ADME, Microsome; details: time 65 min

Structure (SMILES): CC(C)n1ccc2cc(C(=O)NCc3ccc(NS(=O)(=O)C4CC4)cc3C(F)(F)F)ccc21
- IC50 [1]: 0.005 µM
- EC50 [2]: 0.49 µM

Structure (SMILES): O=C(NCc1ccccc1C(F)(F)F)c1ccc2c(c1)[nH]c(=O)n2CC1CCCCC1
- IC50 [1]: 0.322 µM

Structure (SMILES): O=C(NCc1ccccc1C(F)(F)F)c1ccc2c(c1)[nH]c(=O)n2Cc1ccc(Cl)cc1Cl
- Activity [3]: inactive
- IC50 [1]: 0.1 µM

Structure (SMILES): O=C(NCc1ccccc1C(F)(F)F)c1ccc2c(c1)ncn2Cc1cccc(F)c1
- IC50 [1]: 0.107 µM

Structure (SMILES): O=C(NCc1ccccc1C(F)(F)F)c1ccc2c(c1)[nH]c(=O)n2Cc1ccccc1C(F)(F)F
- IC50 [1]: 0.304 µM

Structure (SMILES): O=C(NCc1ccc(NS(=O)(=O)C2CC2)cc1C(F)(F)F)c1ccc2[nH]ccc2c1
- IC50 [1]: 0.029 µM
- EC50 [2]: 1.48 µM

Structure (SMILES): O=C(NCc1ccccc1C(F)(F)F)c1ccc2c(c1)[nH]c(=O)n2Cc1ccc(Cl)cc1
- Activity [3]: inactive
- IC50 [1]: 0.197 µM

Structure (SMILES): COc1ccc(CNC(=O)c2ccc3c(c2)ncn3Cc2cccc(F)c2)c(C(F)(F)F)c1
- IC50 [1]: 0.04 µM

Structure (SMILES): O=C(NCc1ccccc1C(F)(F)F)c1ccc2c(c1)[nH]c(=O)n2Cc1cc(F)cc(F)c1
- IC50 [1]: 0.048 µM

Structure (SMILES): CCS(=O)(=O)Nc1ccc(CNC(=O)c2ccc3c(ccn3Cc3cccc(F)c3)c2)c(C(F)(F)F)c1
- IC50 [1]: 0.003 µM
- EC50 [2]: 0.37 µM

Structure (SMILES): O=C(NCc1ccccc1C(F)(F)F)c1ccc2c(c1)[nH]c(=O)n2Cc1cccc(Cl)c1
- IC50 [1]: 0.087 µM

Structure (SMILES): O=C(NCc1ccccc1C(F)(F)F)c1ccc2c(c1)[nH]c(=O)n2Cc1ccccn1
- Activity [3]: inactive
- IC50 [1]: 0.456 µM

Structure (SMILES): COc1ccc(CNC(=O)c2ccc3c(c2)[nH]c(=O)n3Cc2ccccc2)c(C(F)(F)F)c1
- IC50 [1]: 0.028 µM

Structure (SMILES): CSCc1ccc(CNC(=O)c2ccc3c(ccn3Cc3cccc(F)c3)c2)c(C(F)(F)F)c1
- IC50 [1]: 0.006 µM
- EC50 [2]: 1.43 µM

Structure (SMILES): Nc1ccc(CNC(=O)c2ccc3c(ccn3Cc3cccc(F)c3)c2)c(C(F)(F)F)c1
- IC50 [1]: 0.007 µM

Structure (SMILES): COc1ccc(CNC(=O)c2ccc3c(cnn3Cc3cccc(F)c3)c2)c(C(F)(F)F)c1
- IC50 [1]: 0.022 µM
- EC50 [2]: 1.59 µM

Structure (SMILES): O=C(NCc1ccccc1C(F)(F)F)c1ccc2c(cnn2Cc2cccc(F)c2)c1
- IC50 [1]: 0.036 µM
- EC50 [2]: 1.6 µM

Structure (SMILES): CC(C)S(=O)(=O)n1ccc2cc(C(=O)NCc3ccc(NS(=O)(=O)C4CC4)cc3C(F)(F)F)ccc21
- IC50 [1]: 0.002 µM
- EC50 [2]: 1.05 µM

Structure (SMILES): COc1ccccc1Cn1c(=O)[nH]c2cc(C(=O)NCc3ccccc3C(F)(F)F)ccc21
- Activity [3]: inactive
- IC50 [1]: 0.319 µM

Structure (SMILES): O=C(NCc1ccc(NC(=O)C(F)(F)F)cc1C(F)(F)F)c1ccc2c(ccn2Cc2cccc(F)c2)c1
- IC50 [1]: 0.005 µM

Structure (SMILES): COc1ccc(CNC(=O)c2ccc3c(c2)[nH]c(=O)n3Cc2cccc(F)c2)c(C(F)(F)F)c1
- IC50 [1]: 0.029 µM

Structure (SMILES): O=C(NCc1ccccc1C(F)(F)F)c1ccc2c(c1)[nH]c(=O)n2Cc1cccc(F)c1
- IC50 [1]: 0.153 µM
- EC50 [2]: 0.12 µM

Structure (SMILES): CN(C)CCn1ccc2cc(C(=O)NCc3ccc(NS(=O)(=O)C4CC4)cc3C(F)(F)F)ccc21
- Activity [3]: inactive
- IC50 [1]: 0.028 µM

Structure (SMILES): O=C(NCc1ccccc1C(F)(F)F)c1ccc2c(ccn2Cc2cccc(F)c2)c1
- IC50 [1]: 0.321 µM

Structure (SMILES): CS(=O)(=O)Cc1ccc(CNC(=O)c2ccc3c(ccn3Cc3cccc(F)c3)c2)c(C(F)(F)F)c1
- IC50 [1]: 0.006 µM
- EC50 [2]: 1.35 µM

Structure (SMILES): O=C(NCc1ccccc1C(F)(F)F)c1ccc2c(c1)[nH]c(=O)n2Cc1ccccc1Cl
- IC50 [1]: 0.171 µM

Structure (SMILES): O=C(NCc1ccccc1C(F)(F)F)c1ccc2c(c1)[nH]c(=O)n2Cc1ccc(Cl)c(Cl)c1
- IC50 [1]: 1.09 µM

Structure (SMILES): COc1ccc(CNC(=O)c2ccc3c(ccn3Cc3cccc(F)c3)c2)c(C(F)(F)F)c1
- IC50 [1]: 0.31 µM
- EC50 [2]: 0.85 µM

Structure (SMILES): O=C(NCc1ccccc1C(F)(F)F)c1ccc2c(c1)[nH]c(=O)n2Cc1ccc(F)cc1
- Activity [3]: inactive
- IC50 [1]: 0.142 µM

Structure (SMILES): CC(C)Cn1ccc2cc(C(=O)NCc3ccc(NS(=O)(=O)C4CC4)cc3C(F)(F)F)ccc21
- half-life at 10 µM [4]: 41 min
- half-life at 10 µM [5]: 76 min
- IC50 [1]: 0.002 µM
- half-life at 10 µM [6]: 53 min

Structure (SMILES): O=C(NCc1ccccc1C(F)(F)F)c1ccc2c(c1)[nH]c(=O)n2Cc1ccccc1
- IC50 [1]: 0.082 µM

Structure (SMILES): O=C(NCc1ccccc1C(F)(F)F)c1ccc2c(c1)[nH]c(=O)n2Cc1ccccc1F
- Activity [3]: inactive
- IC50 [1]: 0.055 µM
